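Method: 48-hour compound exposure of cells in 96-well plates, five concentrations, linear interpolation of endpoints. At the GI50, growth is halved.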 Calls of active or inactive are those of the source. Cut-off read from the data, not from the text of the source: active = GI50 up to about 1.1 µM and inactive = higher.
Legend:
Experiment in all cases: inhibition of tumour cell growth, NCI panel, 48 h
786-0 = tested on: 786-0
A498 = tested on: A498
A549 = tested on: A549
ACHN = tested on: ACHN
BT-549 = tested on: BT-549
CAKI-1 = tested on: CAKI-1
CCRF-CEM = tested on: CCRF-CEM
COLO 205 = tested on: COLO 205
DLD-1 = tested on: DLD-1
DMS-114 = tested on: DMS-114
DMS-273 = tested on: DMS-273
DU-145 = tested on: DU-145
EKVX = tested on: EKVX
HCC 2998 = tested on: HCC 2998
HCT-116 = tested on: HCT-116
HCT-15 = tested on: HCT-15
HL-60 = tested on: HL-60
HOP-18 = tested on: HOP-18
HOP-62 = tested on: HOP-62
HOP-92 = tested on: HOP-92
HT-29 = tested on: HT-29
Hs-578T = tested on: Hs-578T
IGROV-1 = tested on: IGROV-1
K562 = tested on: K562
KM-20L2 = tested on: KM-20L2
KM12 = tested on: KM12
LOX IMVI = tested on: LOX IMVI
LXFL 529 = tested on: LXFL 529
M14 = tested on: M14
M19-MEL = tested on: M19-MEL
MCF7 = tested on: MCF7
MDA-MB-231 = tested on: MDA-MB-231
MDA-MB-435 = tested on: MDA-MB-435
MDA-N = tested on: MDA-N
MOLT-4 = tested on: MOLT-4
Malme-3M = tested on: Malme-3M
NCI-H226 = tested on: NCI-H226
NCI-H23 = tested on: NCI-H23
NCI-H460 = tested on: NCI-H460
NCI-H522 = tested on: NCI-H522
NCI/ADR-RES = tested on: NCI/ADR-RES
OVCAR-3 = tested on: OVCAR-3
OVCAR-4 = tested on: OVCAR-4
OVCAR-5 = tested on: OVCAR-5
OVCAR-8 = tested on: OVCAR-8
PC-3 = tested on: PC-3
RPMI-8226 = tested on: RPMI-8226
RXF 393 = tested on: RXF 393
SF-268 = tested on: SF-268
SF-295 = tested on: SF-295
SF-539 = tested on: SF-539
SK-MEL-28 = tested on: SK-MEL-28
SK-MEL-2 = tested on: SK-MEL-2
SK-MEL-5 = tested on: SK-MEL-5
SK-OV-3 = tested on: SK-OV-3
SN12C = tested on: SN12C
SNB-19 = tested on: SNB-19
SNB-75 = tested on: SNB-75
SNB-78 = tested on: SNB-78
SR = tested on: SR
SW-620 = tested on: SW-620
T47D = tested on: T47D
TK-10 = tested on: TK-10
U-251 = tested on: U-251
UACC-257 = tested on: UACC-257
UACC-62 = tested on: UACC-62
UO-31 = tested on: UO-31
XF498 = tested on: XF498

In the case of Cn1c2ccccc2c2ccc3c(c21)C(=O)C=CC3=O, the GI50 (786-0) is reported as 4.27 µM (inactive), the GI50 (A498) is reported as > 45.2 µM (inactive) and the GI50 (A549) is reported as 26.2 µM (inactive). For the same compound, the GI50 (ACHN) was 3.52 µM (inactive), the GI50 (BT-549) was 6.98 µM (inactive) and the GI50 (CAKI-1) was 4.33 µM (inactive). For the same compound, the GI50 (CCRF-CEM) was 0.69 µM (active), the GI50 (COLO 205) was 2.43 µM (inactive) and the GI50 (DLD-1) was 2.3 µM (inactive). The GI50 (DMS-114) was 8.26 µM (inactive), the GI50 (DMS-273) was 12.9 µM (inactive) and the GI50 (DU-145) was 16 µM (inactive). For the same compound, the GI50 (EKVX) was 19.4 µM (inactive), the GI50 (HCC 2998) was 10.3 µM (inactive) and the GI50 (HCT-116) was 4.29 µM (inactive). The GI50 (HCT-15) was 4.56 µM, the GI50 (HL-60) was 0.738 µM (active) and the GI50 (HOP-18) was 2 µM (inactive). For the same compound, the GI50 (HOP-62) was 28 µM (inactive), the GI50 (HOP-92) was 2.52 µM (inactive) and the GI50 (HT-29) was 10.5 µM (inactive). For the same compound, the GI50 (Hs-578T) was 18.4 µM (inactive), the GI50 (IGROV-1) was 15.4 µM (inactive) and the GI50 (K562) was 1.75 µM (inactive). The GI50 (KM-20L2) was 17.1 µM (inactive), the GI50 (KM12) was 22.9 µM (inactive) and the GI50 (LOX IMVI) was 4.18 µM (inactive). For the same compound, the GI50 (LXFL 529) was 2.95 µM (inactive), the GI50 (M14) was 8.65 µM (inactive) and the GI50 (M19-MEL) was 10.5 µM (inactive). For the same compound, the GI50 (MCF7) was 3.3 µM (inactive), the GI50 (MDA-MB-231) was 6.73 µM (inactive) and the GI50 (MDA-MB-435) was 5.11 µM (inactive). For the same compound, the GI50 (MDA-N) was 6.82 µM (inactive), the GI50 (MOLT-4) was 0.755 µM (active) and the GI50 (Malme-3M) was 3.39 µM (inactive). For the same compound, the GI50 (NCI-H226) was 20.5 µM (inactive), the GI50 (NCI-H23) was 12.7 µM (inactive) and the GI50 (NCI-H460) was 16.9 µM (inactive). The GI50 (NCI-H522) was 2.96 µM (inactive), the GI50 (NCI/ADR-RES) was 5.16 µM (inactive) and the GI50 (OVCAR-3) was 7.24 µM (inactive). For the same compound, the GI50 (OVCAR-4) was 1.82 µM (inactive), the GI50 (OVCAR-5) was 14.1 µM (inactive) and the GI50 (OVCAR-8) was 7.03 µM (inactive). For the same compound, the GI50 (PC-3) was 5.6 µM (inactive), the GI50 (RPMI-8226) was 2.32 µM (inactive) and the GI50 (RXF 393) was 2.47 µM (inactive). The GI50 (SF-268) was 14.8 µM (inactive), the GI50 (SF-295) was 24.7 µM (inactive) and the GI50 (SF-539) was 11.5 µM (inactive). For the same compound, the GI50 (SK-MEL-28) was 11.1 µM (inactive), the GI50 (SK-MEL-2) was 15.6 µM (inactive) and the GI50 (SK-MEL-5) was 15.2 µM (inactive). For the same compound, the GI50 (SK-OV-3) was 17.1 µM (inactive), the GI50 (SN12C) was 9.93 µM (inactive) and the GI50 (SNB-19) was 26.5 µM (inactive). For the same compound, the GI50 (SNB-75) was 16.7 µM (inactive), the GI50 (SNB-78) was 21.1 µM (inactive) and the GI50 (SR) was 0.796 µM (active). For the same compound, the GI50 (SW-620) was 2.02 µM (inactive), the GI50 (T47D) was 3.27 µM (inactive) and the GI50 (TK-10) was 3.88 µM (inactive). The GI50 (U-251) was 11.4 µM (inactive), the GI50 (UACC-257) was 9.48 µM (inactive) and the GI50 (UACC-62) was 12.1 µM (inactive). The GI50 (UO-31) was 6.93 µM (inactive) and the GI50 (XF498) was 2.15 µM (inactive).
OCC(O)C(O)C(O)c1nn(-c2ccc(Cl)cc2)c2nc3cc(Cl)c(Cl)cc3nc12 (configuration not stated) was tested, and the GI50 (786-0) was 65.6 µM (inactive), the GI50 (A549) was 32.4 µM (inactive) and the GI50 (ACHN) was 73.1 µM (inactive). The GI50 (CAKI-1) was > 100 µM (inactive), the GI50 (CCRF-CEM) was 52.1 µM (inactive) and the GI50 (COLO 205) was > 100 µM (inactive). For the same compound, the GI50 (DLD-1) was > 100 µM (inactive), the GI50 (DMS-114) was 94.4 µM (inactive) and the GI50 (DMS-273) was > 100 µM (inactive). For the same compound, the GI50 (EKVX) was 22.8 µM (inactive), the GI50 (HCC 2998) was 60.1 µM (inactive) and the GI50 (HCT-116) was > 100 µM (inactive). For the same compound, the GI50 (HL-60) was > 100 µM (inactive), the GI50 (HOP-18) was 31.9 µM (inactive) and the GI50 (HOP-62) was 20.1 µM (inactive). For the same compound, the GI50 (HT-29) was > 100 µM (inactive), the GI50 (IGROV-1) was 31.8 µM (inactive) and the GI50 (K562) was 50.8 µM (inactive). For the same compound, the GI50 (KM-20L2) was > 100 µM (inactive), the GI50 (KM12) was > 10 µM (inactive) and the GI50 (LOX IMVI) was 39.3 µM (inactive). The GI50 (LXFL 529) was 33 µM (inactive), the GI50 (M14) was 22.7 µM (inactive) and the GI50 (M19-MEL) was > 100 µM (inactive). The GI50 (MOLT-4) was 52.5 µM (inactive), the GI50 (Malme-3M) was 15.2 µM (inactive) and the GI50 (NCI-H226) was 21.1 µM (inactive). The GI50 (NCI-H23) was 19.2 µM (inactive), the GI50 (NCI-H460) was 68.7 µM (inactive) and the GI50 (NCI-H522) was 27.1 µM (inactive). The GI50 (OVCAR-3) was > 100 µM (inactive), the GI50 (OVCAR-4) was > 100 µM (inactive) and the GI50 (OVCAR-5) was > 100 µM (inactive). For the same compound, the GI50 (OVCAR-8) was 22.5 µM (inactive), the GI50 (RPMI-8226) was > 100 µM (inactive) and the GI50 (RXF 393) was 21.8 µM (inactive). For the same compound, the GI50 (SF-268) was 71.1 µM (inactive), the GI50 (SF-295) was 67.6 µM (inactive) and the GI50 (SF-539) was 42.8 µM (inactive). The GI50 (SK-MEL-28) was 61.1 µM (inactive), the GI50 (SK-MEL-2) was 24.8 µM (inactive) and the GI50 (SK-OV-3) was 23.8 µM (inactive). For the same compound, the GI50 (SN12C) was > 100 µM (inactive), the GI50 (SNB-19) was 33.7 µM (inactive) and the GI50 (SNB-75) was 3.66 µM (inactive). The GI50 (SNB-78) was 20.7 µM (inactive), the GI50 (SR) was > 100 µM (inactive) and the GI50 (SW-620) was > 100 µM (inactive). For the same compound, the GI50 (TK-10) was 32.4 µM (inactive), the GI50 (U-251) was 57.5 µM (inactive) and the GI50 (UACC-257) was 86.3 µM (inactive). The GI50 (UACC-62) was 47 µM (inactive), the GI50 (UO-31) was 71.6 µM (inactive) and the GI50 (XF498) was 11.1 µM (inactive).

Reference: ChEMBL document CHEMBL1201862, “PubChem BioAssay data set” (2004)
